According to PubChem BioAssay (NCI):
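Test compounds were applied to cells in 96-well plates for 48 hours at 5 doses. At the GI50, growth is halved. TGI marks complete inhibition of growth.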

Key:
Assay in all cases: inhibition of tumour cell growth, NCI panel, 48 h
786-0 renal = system: 786-0 renal
SR leukemia = system: SR leukemia
TK-10 renal = system: TK-10 renal
PC-3 prostate = system: PC-3 prostate
U251 CNS = system: U251 CNS
SNB-19 CNS = system: SNB-19 CNS
BT-549 breast = system: BT-549 breast
HS 578T breast = system: HS 578T breast
SF-539 CNS = system: SF-539 CNS
MALME-3M melanoma = system: MALME-3M melanoma
RXF 393 renal = system: RXF 393 renal
ACHN renal = system: ACHN renal
UACC-257 melanoma = system: UACC-257 melanoma
CCRF-CEM leukemia = system: CCRF-CEM leukemia
OVCAR-4 ovarian = system: OVCAR-4 ovarian
SK-OV-3 ovarian = system: SK-OV-3 ovarian
OVCAR-8 ovarian = system: OVCAR-8 ovarian
COLO 205 colon = system: COLO 205 colon
T-47D breast = system: T-47D breast
SK-MEL-2 melanoma = system: SK-MEL-2 melanoma
NCI-H226 lung = system: NCI-H226 lung
CAKI-1 renal = system: CAKI-1 renal
OVCAR-5 ovarian = system: OVCAR-5 ovarian
DU-145 prostate = system: DU-145 prostate
SK-MEL-5 melanoma = system: SK-MEL-5 melanoma
SF-295 CNS = system: SF-295 CNS
HOP-62 NSCLC = system: HOP-62 NSCLC
NCI-H522 lung = system: NCI-H522 lung
HCT-15 colon = system: HCT-15 colon
MDA-MB-231 breast = system: MDA-MB-231 breast
SF-268 CNS = system: SF-268 CNS
MOLT-4 leukemia = system: MOLT-4 leukemia
K-562 leukemia = system: K-562 leukemia
EKVX NSCLC = system: EKVX NSCLC
UO-31 renal = system: UO-31 renal
SN12C renal = system: SN12C renal
M14 melanoma = system: M14 melanoma
UACC-62 melanoma = system: UACC-62 melanoma
NCI/ADR-RES ovarian = system: NCI/ADR-RES ovarian
SNB-75 CNS = system: SNB-75 CNS
NCI-H23 lung = system: NCI-H23 lung
A549 NSCLC = system: A549 NSCLC
A498 renal = system: A498 renal
IGROV1 ovarian = system: IGROV1 ovarian
HCC-2998 colon = system: HCC-2998 colon
HCT-116 colon = system: HCT-116 colon
NCI-H460 lung = system: NCI-H460 lung
SK-MEL-28 melanoma = system: SK-MEL-28 melanoma
MCF7 breast = system: MCF7 breast
LOX IMVI melanoma = system: LOX IMVI melanoma
HL-60(TB) leukemia = system: HL-60(TB) leukemia
MDA-MB-435 = system: MDA-MB-435
HOP-92 NSCLC = system: HOP-92 NSCLC
SW-620 colon = system: SW-620 colon
HT29 colon = system: HT29 colon
KM12 colon = system: KM12 colon

CCn1c(SCC(=O)Nc2cccc(C(=O)/C=C/c3cc(OC)c(OC)c(OC)c3)c2)nc2ccccc2c1=O
GI50 (786-0 renal): 1.94 µM
TGI (786-0 renal): 3.92 µM
GI50 (SR leukemia): 1.29 µM
TGI (SR leukemia): > 100 µM
GI50 (TK-10 renal): 7.08 µM
TGI (TK-10 renal): > 100 µM
GI50 (PC-3 prostate): 5.09 µM
TGI (PC-3 prostate): > 100 µM
GI50 (U251 CNS): 2.35 µM
TGI (U251 CNS): 6.46 µM
GI50 (SNB-19 CNS): 3.89 µM
TGI (SNB-19 CNS): > 100 µM
GI50 (BT-549 breast): 2.66 µM
TGI (BT-549 breast): 9.31 µM
GI50 (HS 578T breast): 3.64 µM
TGI (HS 578T breast): > 100 µM
GI50 (SF-539 CNS): 2.3 µM
TGI (SF-539 CNS): 5.77 µM
GI50 (MALME-3M melanoma): 6.52 µM
TGI (MALME-3M melanoma): > 100 µM
GI50 (RXF 393 renal): 1.56 µM
TGI (RXF 393 renal): 7.82 µM
GI50 (ACHN renal): 2.29 µM
TGI (ACHN renal): 6.61 µM
GI50 (UACC-257 melanoma): 12.5 µM
TGI (UACC-257 melanoma): > 100 µM
GI50 (CCRF-CEM leukemia): 2.57 µM
TGI (CCRF-CEM leukemia): > 100 µM
GI50 (OVCAR-4 ovarian): 5.52 µM
TGI (OVCAR-4 ovarian): > 100 µM
GI50 (SK-OV-3 ovarian): 16.2 µM
TGI (SK-OV-3 ovarian): 76.3 µM
GI50 (OVCAR-8 ovarian): 3.16 µM
TGI (OVCAR-8 ovarian): > 100 µM
GI50 (COLO 205 colon): 3.91 µM
TGI (COLO 205 colon): 89.1 µM
GI50 (T-47D breast): 5.08 µM
TGI (T-47D breast): > 100 µM
GI50 (SK-MEL-2 melanoma): 3.3 µM
TGI (SK-MEL-2 melanoma): 15.3 µM
GI50 (NCI-H226 lung): 1.91 µM
TGI (NCI-H226 lung): 5.55 µM
GI50 (CAKI-1 renal): 3.75 µM
TGI (CAKI-1 renal): > 100 µM
GI50 (OVCAR-5 ovarian): 2.36 µM
TGI (OVCAR-5 ovarian): 5.65 µM
GI50 (DU-145 prostate): 2.36 µM
TGI (DU-145 prostate): 6.12 µM
GI50 (SK-MEL-5 melanoma): 9.79 µM
TGI (SK-MEL-5 melanoma): 32 µM
GI50 (SF-295 CNS): 4.1 µM
TGI (SF-295 CNS): 20.6 µM
GI50 (HOP-62 NSCLC): 2.46 µM
TGI (HOP-62 NSCLC): 6.78 µM
GI50 (NCI-H522 lung): 2.86 µM
TGI (NCI-H522 lung): 9.29 µM
GI50 (HCT-15 colon): 2.27 µM
TGI (HCT-15 colon): 9.62 µM
GI50 (MDA-MB-231 breast): 5.26 µM
TGI (MDA-MB-231 breast): > 100 µM
GI50 (SF-268 CNS): 4.13 µM
TGI (SF-268 CNS): > 100 µM
GI50 (MOLT-4 leukemia): 3.55 µM
TGI (MOLT-4 leukemia): > 100 µM
GI50 (K-562 leukemia): 3.19 µM
TGI (K-562 leukemia): > 100 µM
GI50 (EKVX NSCLC): 4.26 µM
TGI (EKVX NSCLC): 56.7 µM
GI50 (UO-31 renal): 1.7 µM
TGI (UO-31 renal): 6.42 µM
GI50 (SN12C renal): 3.86 µM
TGI (SN12C renal): > 100 µM
GI50 (M14 melanoma): 2.9 µM
TGI (M14 melanoma): > 100 µM
GI50 (UACC-62 melanoma): 4.43 µM
TGI (UACC-62 melanoma): 76.7 µM
GI50 (NCI/ADR-RES ovarian): 2.89 µM
TGI (NCI/ADR-RES ovarian): 15.4 µM
GI50 (SNB-75 CNS): 2.65 µM
TGI (SNB-75 CNS): > 100 µM
GI50 (NCI-H23 lung): 2.63 µM
TGI (NCI-H23 lung): 8.58 µM
GI50 (A549 NSCLC): 3.05 µM
TGI (A549 NSCLC): 30.8 µM
GI50 (A498 renal): 2.15 µM
TGI (A498 renal): 9.11 µM
GI50 (IGROV1 ovarian): 1.8 µM
TGI (IGROV1 ovarian): 4.31 µM
GI50 (HCC-2998 colon): 2 µM
TGI (HCC-2998 colon): 4.49 µM
GI50 (HCT-116 colon): 1.73 µM
TGI (HCT-116 colon): 3.75 µM
GI50 (NCI-H460 lung): 2.6 µM
TGI (NCI-H460 lung): 11.7 µM
GI50 (SK-MEL-28 melanoma): 3.66 µM
TGI (SK-MEL-28 melanoma): > 100 µM
GI50 (MCF7 breast): 2.3 µM
TGI (MCF7 breast): > 100 µM
GI50 (LOX IMVI melanoma): 1.18 µM
TGI (LOX IMVI melanoma): 2.63 µM
GI50 (HL-60(TB) leukemia): 3.38 µM
TGI (HL-60(TB) leukemia): > 100 µM
GI50 (MDA-MB-435): 3.12 µM
TGI (MDA-MB-435): 48.2 µM
GI50 (HOP-92 NSCLC): 3.17 µM
TGI (HOP-92 NSCLC): > 100 µM
GI50 (SW-620 colon): 2.48 µM
TGI (SW-620 colon): 7.05 µM
GI50 (HT29 colon): 2.07 µM
TGI (HT29 colon): 4.39 µM
GI50 (KM12 colon): 1.89 µM
TGI (KM12 colon): 4.52 µM
